From ChEMBL document CHEMBL4308841, “Synthesis, in vitro antiproliferative activity, and kinase inhibitory effects of pyrazole-containing diarylureas and diarylamides” (Eur J Med Chem, 2018)

Key:
BT-549 = experiment: Growth inhibition of human BT549 cells assessed as cell growth at 100 uM incubated for 48 hrs by sulforhodamine B assay relative to control; type: functional; settings: BT-549, 48 h, read-out: Activity
SF-539 = experiment: Growth inhibition of human SF539 cells incubated for 48 hrs by sulforhodamine B assay; type: functional, cell-based; settings: SF-539, 48 h
ACHN = experiment: Growth inhibition of human ACHN cells assessed as cell growth at 1 uM incubated for 48 hrs by sulforhodamine B assay relative to control; type: functional; settings: read-out: Activity
RXF 393 = experiment: Growth inhibition of human RXF393 cells incubated for 48 hrs by sulforhodamine B assay; type: functional, cell-based; settings: RXF 393, 48 h
LOX IMVI = experiment: Growth inhibition of human LOXIMVI cells assessed as cell growth at 1 uM incubated for 48 hrs by sulforhodamine B assay relative to control; type: functional; settings: read-out: Activity
HT-29 [1] = experiment: Growth inhibition of human HT-29 cells assessed as cell growth at 0.01 uM incubated for 48 hrs by sulforhodamine B assay relative to control; type: functional; settings: HT-29, 48 h, read-out: Activity
NCI-H460 [2] = experiment: Growth inhibition of human NCI-H460 cells assessed as cell growth at 0.01 uM incubated for 48 hrs by sulforhodamine B assay relative to control; type: functional; settings: NCI-H460, 48 h, read-out: Activity
NCI-H226 [3] = experiment: Growth inhibition of human NCI-H226 cells assessed as cell growth at 0.01 uM incubated for 48 hrs by sulforhodamine B assay relative to control; type: functional; settings: NCI-H226, 48 h, read-out: Activity
OVCAR-5 [4] = experiment: Growth inhibition of human OVCAR5 cells assessed as cell growth at 1 uM incubated for 48 hrs by sulforhodamine B assay relative to control; type: functional; settings: OVCAR-5, 48 h, read-out: Activity
NCI-H226 [5] = experiment: Growth inhibition of human NCI-H226 cells incubated for 48 hrs by sulforhodamine B assay; type: functional, cell-based; settings: NCI-H226, 48 h
HT-29 [6] = experiment: Growth inhibition of human HT-29 cells assessed as cell growth at 100 uM incubated for 48 hrs by sulforhodamine B assay relative to control; type: functional; settings: HT-29, 48 h, read-out: Activity
NCI-H460 [7] = experiment: Growth inhibition of human NCI-H460 cells assessed as cell growth at 100 uM incubated for 48 hrs by sulforhodamine B assay relative to control; type: functional; settings: NCI-H460, 48 h, read-out: Activity
SK-MEL-28 = experiment: Growth inhibition of human SK-MEL-28 cells assessed as cell growth at 100 uM incubated for 48 hrs by sulforhodamine B assay relative to control; type: functional; settings: SK-MEL-28, 48 h, read-out: Activity
SNB-75 = experiment: Growth inhibition of human SNB75 cells assessed as cell growth at 100 uM incubated for 48 hrs by sulforhodamine B assay relative to control; type: functional; settings: SNB-75, 48 h, read-out: Activity
SK-OV-3 = experiment: Growth inhibition of human SKOV3 cells incubated for 48 hrs by sulforhodamine B assay; type: functional, cell-based; settings: SK-OV-3, 48 h
COLO 205 = experiment: Growth inhibition of human COLO205 cells assessed as cell growth at 0.1 uM incubated for 48 hrs by sulforhodamine B assay relative to control; type: functional; settings: COLO 205, 48 h, read-out: Activity
PC-3 = experiment: Growth inhibition of human PC3 cells assessed as cell growth at 0.1 uM incubated for 48 hrs by sulforhodamine B assay relative to control; type: functional; settings: PC-3, 48 h, read-out: Activity
NCI-H460 [8] = experiment: Growth inhibition of human NCI-H460 cells incubated for 48 hrs by sulforhodamine B assay; type: functional, cell-based; settings: NCI-H460, 48 h
OVCAR-5 [9] = experiment: Growth inhibition of human OVCAR5 cells assessed as cell growth at 0.1 uM incubated for 48 hrs by sulforhodamine B assay relative to control; type: functional; settings: OVCAR-5, 48 h, read-out: Activity
SW-620 = experiment: Growth inhibition of human SW620 cells assessed as cell growth at 1 uM incubated for 48 hrs by sulforhodamine B assay relative to control; type: functional; settings: SW-620, 48 h, read-out: Activity
UACC-62 = experiment: Growth inhibition of human UACC62 cells assessed as cell growth at 100 uM incubated for 48 hrs by sulforhodamine B assay relative to control; type: functional; settings: UACC-62, 48 h, read-out: Activity
RPMI-8226 = experiment: Growth inhibition of human RPMI8226 cells assessed as cell growth at 0.01 uM incubated for 48 hrs by sulforhodamine B assay relative to control; type: functional; settings: RPMI-8226, 48 h, read-out: Activity
NCI-H322M = experiment: Growth inhibition of human NCI-H322M cells assessed as cell growth at 100 uM incubated for 48 hrs by sulforhodamine B assay relative to control; type: functional; settings: read-out: Activity
U-251 = experiment: Growth inhibition of human U251 cells incubated for 48 hrs by sulforhodamine B assay; type: functional, cell-based; settings: U-251, 48 h
OVCAR-8 [10] = experiment: Growth inhibition of human OVCAR8 cells assessed as cell growth at 100 uM incubated for 48 hrs by sulforhodamine B assay relative to control; type: functional; settings: OVCAR-8, 48 h, read-out: Activity
MCF7 = experiment: Growth inhibition of human MCF7 cells assessed as cell growth at 100 uM incubated for 48 hrs by sulforhodamine B assay relative to control; type: functional; settings: MCF7, 48 h, read-out: Activity
HT-29 [11] = experiment: Growth inhibition of human HT-29 cells assessed as cell growth at 0.1 uM incubated for 48 hrs by sulforhodamine B assay relative to control; type: functional; settings: HT-29, 48 h, read-out: Activity
HCT-116 = experiment: Growth inhibition of human HCT116 cells assessed as cell growth at 1 uM incubated for 48 hrs by sulforhodamine B assay relative to control; type: functional; settings: HCT-116, 48 h, read-out: Activity
Malme-3M = experiment: Growth inhibition of human MALME-3M cells assessed as cell growth at 1 uM incubated for 48 hrs by sulforhodamine B assay relative to control; type: functional; settings: read-out: Activity
OVCAR-8 [12] = experiment: Growth inhibition of human OVCAR8 cells assessed as cell growth at 0.01 uM incubated for 48 hrs by sulforhodamine B assay relative to control; type: functional; settings: OVCAR-8, 48 h, read-out: Activity
[13] = read-out: LC50 (the source's name)
[14] = read-out: pLC50 (the source's name) (converted)

`COc1cc(Cl)cc(-c2nn(-c3cccc(NC(=O)Nc4ccc(Cl)c(C(F)(F)F)c4)c3)cc2-c2ccncc2)c1` gave a growth at 100 µM (BT-549) of -68%, a GI50 (SF-539; read-out: GI50) of 1500 nM and a CC50 (SF-539; [13]) of 7.51 µM. It also gave a TGI (SF-539; read-out: TGI) of 33.5 µM, a GI50 (SF-539; read-out: pGI50 (converted)) of 1510 nM and a CC50 (SF-539; [14]) of 7.59 µM. For the same molecule, the TGI (SF-539; read-out: pTGI (converted)) was 3.39 µM, the growth at 1 µM (ACHN) was 45% and the LC50 (RXF 393) was 28.2 µM. It also gave a GI50 (RXF 393; read-out: GI50) of 1710 nM, a TGI (RXF 393; read-out: TGI) of 44.2 µM and a GI50 (RXF 393; read-out: pGI50 (converted)) of 1700 nM. It also gave a TGI (RXF 393; read-out: pTGI (converted)) of 9.33 µM, a growth at 1 µM (LOX IMVI) of 61% and a growth at 0.01 µM (HT-29 [1]) of 101%. It also gave a growth at 0.01 µM (NCI-H460 [2]) of 100%, a growth at 0.01 µM (NCI-H226 [3]) of 97% and a growth at 1 µM (OVCAR-5 [4]) of 81%. For the same molecule, the GI50 (NCI-H226 [5]; read-out: GI50) was 2500 nM, the LC50 (NCI-H226 [5]; read-out: LC50) was > 100 µM and the TGI (NCI-H226 [5]; read-out: TGI) was 14.7 µM. The GI50 (NCI-H226 [5]; read-out: pGI50 (converted)) was 2510 nM, the LC50 (NCI-H226 [5]; read-out: pLC50 (converted)) was > 100 µM and the TGI (NCI-H226 [5]; read-out: pTGI (converted)) was 14.8 µM. It also gave a growth at 100 µM (HT-29 [6]) of -84%, a growth at 100 µM (NCI-H460 [7]) of -62% and a growth at 100 µM (SK-MEL-28) of -88%. For the same molecule, the growth at 100 µM (SNB-75) was -38%, the GI50 (SK-OV-3; read-out: GI50) was 3.15 µM and the CC50 (SK-OV-3; [13]) was > 100 µM. For the same molecule, the TGI (SK-OV-3; read-out: TGI) was 95.5 µM, the GI50 (SK-OV-3; read-out: pGI50 (converted)) was 3.16 µM and the CC50 (SK-OV-3; [14]) was > 100 µM. For the same molecule, the TGI (SK-OV-3; read-out: pTGI (converted)) was 11.7 µM, the growth at 0.1 µM (COLO 205) was 99% and the growth at 0.1 µM (PC-3) was 91%. The GI50 (NCI-H460 [8]; read-out: GI50) was 770 nM, the CC50 (NCI-H460 [8]; [13]) was 4.48 µM and the TGI (NCI-H460 [8]; read-out: TGI) was 40 µM. It also gave a CC50 (NCI-H460 [8]; [14]) of 44.7 µM, a growth at 0.1 µM (OVCAR-5 [9]) of 73% and a growth at 1 µM (SW-620) of 63%. It also gave a growth at 100 µM (UACC-62) of -85%, a growth at 0.01 µM (RPMI-8226) of 97% and a growth at 100 µM (NCI-H322M) of -22%. It also gave an IC50 (U-251) of 730 nM, a GI50 (U-251; read-out: GI50) of 729 nM and a CC50 (U-251; [13]) of 5 µM. It also gave a TGI (U-251; read-out: TGI) of 21.1 µM, a GI50 (U-251; read-out: pGI50 (converted)) of 724 nM and a CC50 (U-251; [14]) of 5.01 µM. The TGI (U-251; read-out: pTGI (converted)) was 2.09 µM, the growth at 100 µM (OVCAR-8 [10]) was -33% and the growth at 100 µM (MCF7) was -8%. For the same molecule, the growth at 0.1 µM (HT-29 [11]) was 94%, the growth at 1 µM (HCT-116) was 38% and the growth at 1 µM (Malme-3M) was 67%. For the same molecule, the growth at 0.01 µM (OVCAR-8 [12]) was 98%.
